IC50 data for 17 molecules are collected here from patent US20140107109A1, “AMINO-DIHYDROTHIAZINE AND AMINO-DIOXIDO DIHYDROTHIAZINE COMPOUNDS AS BETA-SECRETASE ANTAGONISTS AND METHODS OF USE” (Amgen Inc., priority 2012, published 2014).

One experiment has as its target T1, Cathepsin D (Cat D) (Homo sapiens, UniProt P07339).
T1 construct: Recombinant Cat D was expressed in CHO cells; made in house; host or cells: CHO cells
Description: In vitro enzymatic Cathepsin D (Cat D) FRET assay. It counts as biochemical. Particulars: read-out: CatD IC50. The method, boiled down:
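FRET read-out: a fluorophore/quencher-labelled peptide substrate is cleaved by 9 nM Cat D (recombinant, CHO-expressed) following a one-hour preincubation with inhibitor dilutions in DMSO. Tris buffer added to neutralize pH ends the reaction before fluorescence measurement.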

Experiment [1] concerns Aβ40 in conditioned medium of cells stably expressing Amyloid Precursor Protein (APP). The experiment in a line: In vitro BACE cell-based assay (HEK cell assay), Aβ40 sandwich ELISA. To be noted: Homo sapiens, HEK293. The method, boiled down: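 Aβ40 in conditioned medium was quantified by time-resolved fluorescence sandwich ELISA (pAb40 capture 3 h at 4 °C, biotin-6E10 detection 2 h at 4 °C) after 24 h compound exposure of APP-expressing cells. Doses spanned 10 points from 100 μM or 10 μM top, 0.1% DMSO; IC50 was derived from percent of control.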
(In general: An ELISA detects its analyte on a solid surface through an enzyme-linked reagent.)

Experiment [2] concerns the target Beta Secretase enzyme (BACE1) (Homo sapiens, UniProt P56817). Description: In vitro enzymatic BACE FRET assay. The experiment is classed as biochemical. Particulars: read-out: BACE1 FRET assay IC50. The method, boiled down:
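Readout: dequenched fluorescence (ex 488 nm/[…]) after neutralizing with Tris buffer. Reactions, begun by adding 50 nM quenched peptide substrate spanning the BACE cleavage site, were incubated one hour at pH 4.2 in 0.05 M acetate with 100 uM genapol and 10% final DMSO.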

A word on the IC50: it is the concentration that gives 50% inhibition.

Molecules are shown by their SMILES. Where two headings read alike, the source gives them in different places.

T1 sequence (P07339 65-412, species assumed): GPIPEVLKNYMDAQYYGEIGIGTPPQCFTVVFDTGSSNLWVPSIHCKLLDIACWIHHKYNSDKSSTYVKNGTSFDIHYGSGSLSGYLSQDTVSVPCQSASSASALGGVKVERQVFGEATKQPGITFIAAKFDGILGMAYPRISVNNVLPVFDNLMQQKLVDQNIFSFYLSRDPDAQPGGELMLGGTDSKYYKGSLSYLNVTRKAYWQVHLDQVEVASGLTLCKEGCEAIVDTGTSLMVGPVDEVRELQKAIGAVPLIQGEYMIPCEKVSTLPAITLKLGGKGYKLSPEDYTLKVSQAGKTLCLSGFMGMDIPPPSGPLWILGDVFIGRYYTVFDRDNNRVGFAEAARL
Sequence of Beta Secretase enzyme (BACE1) (P56817 46-501): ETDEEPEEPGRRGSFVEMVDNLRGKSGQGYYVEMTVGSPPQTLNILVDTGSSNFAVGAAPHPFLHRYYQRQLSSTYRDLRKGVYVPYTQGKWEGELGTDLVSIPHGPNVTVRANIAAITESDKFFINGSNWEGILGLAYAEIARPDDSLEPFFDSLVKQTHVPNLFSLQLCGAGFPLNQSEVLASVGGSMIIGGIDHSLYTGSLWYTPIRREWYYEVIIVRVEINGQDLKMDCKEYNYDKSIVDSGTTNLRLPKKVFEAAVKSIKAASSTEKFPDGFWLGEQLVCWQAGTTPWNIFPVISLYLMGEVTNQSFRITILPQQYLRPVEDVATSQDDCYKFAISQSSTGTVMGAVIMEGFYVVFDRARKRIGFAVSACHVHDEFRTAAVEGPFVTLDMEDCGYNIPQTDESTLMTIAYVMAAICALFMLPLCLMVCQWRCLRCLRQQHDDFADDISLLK

Take `CCOc1cnc2c(Nc3ccc(F)c([C@]4(CF)CS(=O)(=O)C(C)(C)C(N)=N4)c3)nccc2n1` [Example 237, N-(3-((3S)-5-amino-3-(fluoromethyl)-6,6-dimethyl-1,1-dioxido-3,6-dihydro-2H-1,4-thiazin-3-yl)-4-fluorophenyl)-2-ethoxypyrido[3,4-b]pyrazin-5-amine]: the IC50 at Cathepsin D (Cat D) amounted to 661000 nM; in experiment [1] (average IC50, cell assay), 40.9 nM; in experiment [2] (average IC50, enzyme assay) it was 2.85 nM.

As for `CC1(C)C(N)=N[C@](C)(c2cc(Oc3ncccc3C(F)(F)F)ccc2F)CS1(=O)=O` [Example 278, (5R)-5-(2-fluoro-5-((3-(trifluoromethyl)-2-pyridinyl)oxy)phenyl)-2,2,5-trimethyl-5,6-dihydro-2H-1,4-thiazin-3-amine 1,1-dioxide], the IC50 at Cathepsin D (Cat D) is 147000 nM; in experiment [1] (average IC50, cell assay), 359 nM; in experiment [2] (average IC50, enzyme assay) it was 341 nM.

For the molecule `CC1(C)C(N)=N[C@](C)(c2cc(Sc3cccc4ccccc34)ccc2F)CS1(=O)=O` [Example 79, (R)-5-Amino-3-(2-fluoro-5-(naphthalen-1-ylthio)phenyl)-3,6,6-trimethyl-3,6-dihydro-2H-1,4-thiazine 1,1-dioxide], the IC50 at Cathepsin D (Cat D) was found to be 33700 nM; in experiment [1] (Aβ40, 24 h incubation), 4940 nM; in experiment [2], 2500 nM.

`CC1(C)C(N)=N[C@](C)(c2cc(Nc3nccc4cc(OCC(F)F)cnc34)ccc2F)CS1(=O)=O` [Example 161, (R)-5-amino-3-(5-((3-(2,2-difluoroethoxy)-1,7-naphthyridin-8-yl)amino)-2-fluorophenyl)-3,6,6-trimethyl-3,6-dihydro-2H-1,4-thiazine 1,1-dioxide]: the IC50 came out at 447000 nM at Cathepsin D (Cat D); 17.8 nM in experiment [1] (average IC50, cell assay); 14.3 nM in experiment [2] (average IC50, enzyme assay).

Consider `COc1cnc(C(=O)Nc2ccc(F)c([C@]3(CF)CS(=O)(=O)C(C)(C)C(N)=N3)c2)c(OC)n1` [Example 155, (S)—N-(3-(5-amino-3-(fluoromethyl)-6,6-dimethyl-1,1-dioxido-3,6-dihydro-2H-1,4-thiazin-3-yl)-4-fluorophenyl)-3,5-dimethoxypyrazine-2-carboxamide], for which the IC50 came to 470000 nM at Cathepsin D (Cat D); 35.1 nM in experiment [1] (average IC50, cell assay); 4.3 nM in experiment [2] (average IC50, enzyme assay).

Take `CC1(C)C(N)=N[C@](C)(c2cc(Oc3ncc(C(F)(F)F)cc3Cl)ccc2F)CS1(=O)=O` [Example 267, (5R)-5-(5-((3-chloro-5-(trifluoromethyl)-2-pyridinyl)oxy)-2-fluorophenyl)-2,2,5-trimethyl-5,6-dihydro-2H-1,4-thiazin-3-amine 1,1-dioxide]: the IC50 on Cathepsin D (Cat D) was determined as 221000 nM; in experiment [1] (average IC50, cell assay), 874 nM; in experiment [2] (average IC50, enzyme assay) it was 603 nM.

With `CC1[C@@](C)(c2cc(Br)ccc2F)N=C(N)[C@](C)(F)S1(=O)=O` (stereo partly drawn) [Example 459, (2R,5R)-5-(5-bromo-2-fluorophenyl)-2-fluoro-2,5,6-trimethyl-5,6-dihydro-2H-1,4-thiazin-3-amine 1,1-dioxide], the IC50 at Cathepsin D (Cat D) was over 400000 nM; in experiment [1] (average IC50, HEK cells) it was 5470 nM; in experiment [2] (average IC50) it was 2300 nM.

Turning to `NC1=N[C@](CF)(c2cc(Br)ccc2F)CS(=O)(=O)C12CCC2` [Example 172, (S)-9-amino-7-(5-bromo-2-fluorophenyl)-7-(fluoromethyl)-5-thia-8-azaspiro[3.5]non-8-ene 5,5-dioxide], the IC50 at Cathepsin D (Cat D) is 45400 nM; in experiment [1] (average IC50, HEK cells), over 15600 nM; in experiment [2] (average IC50) it was 3560 nM.

As for `COc1cccnc1Oc1ccc(F)c([C@]2(C)CS(=O)(=O)C(C)(C)C(N)=N2)c1` [Example 297, (5R)-5-(2-fluoro-5-((3-methoxy-2-pyridinyl)oxy)phenyl)-2,2,5-trimethyl-5,6-dihydro-2H-1,4-thiazin-3-amine 1,1-dioxide], the IC50 amounted to 975000 nM at Cathepsin D (Cat D); 219 nM in experiment [1] (average IC50, HEK cell assay); 202 nM in experiment [2] (average IC50, enzyme assay).

Regarding `CC1(C)C(N)=N[C@](CF)(c2cc(NC(=O)c3cnc(C(F)F)cn3)ccc2F)CS1(=O)=O` [Example 376, N-(3-((3S)-5-amino-3-(fluoromethyl)-6,6-dimethyl-1,1-dioxido-3,6-dihydro-2H-1,4-thiazin-3-yl)-4-fluorophenyl)-5-(difluoromethyl)-2-pyrazinecarboxamide], the IC50 at Cathepsin D (Cat D) turned out to be 172000 nM; in experiment [1], 61.5 nM; in experiment [2] it was 2.23 nM.

For the molecule `CC1(C)C(N)=N[C@](CF)(c2cc(NC(=O)c3ccc(C(F)(F)F)cn3)ccc2F)CS1(=O)=O` [Example 383, N-(3-((3S)-5-amino-3-(fluoromethyl)-6,6-dimethyl-1,1-dioxido-3,6-dihydro-2H-1,4-thiazin-3-yl)-4-fluorophenyl)-5-(trifluoromethyl)-2-pyridinecarboxamide], the IC50 on Cathepsin D (Cat D) worked out at 217000 nM; in experiment [1], 20 nM; in experiment [2], 2.62 nM.

As to `COc1cnc(C(=O)Nc2ccc(F)c([C@]3(C)CS(=O)(=O)C(C)C(N)=N3)c2)cn1` (stereo partly drawn) [Example 82, N-(3-((3R)-5-Amino-3,6-dimethyl-1,1-dioxido-3,6-dihydro-2H-1,4-thiazin-3-yl)-4-fluorophenyl)-5-methoxypyrazine-2-carboxamide], the IC50 is over 400000 nM on Cathepsin D (Cat D); 12.5 nM in experiment [1] (Aβ40, 24 h incubation); 7.5 nM in experiment [2].

Consider `CC1(C)C(N)=N[C@](C)(c2cc(Oc3nccc4cc(Cl)cnc34)ccc2F)CS1(=O)=O` [Example 304, (5R)-5-(5-((3-chloro-1,7-naphthyridin-8-yl)oxy)-2-fluorophenyl)-2,2,5-trimethyl-5,6-dihydro-2H-1,4-thiazin-3-amine 1,1-dioxide], for which the IC50 on Cathepsin D (Cat D) stood at 282000 nM; in experiment [1] (average IC50, HEK cell assay) it was 198 nM; in experiment [2] (average IC50, enzyme assay), 127 nM.

Take `CC1(C)C(N)=N[C@@](C)(c2cc(Nc3noc4cc(Cl)cnc34)ccc2F)CS1(=O)=O` [Example 78, (S)-5-Amino-3-(5-((6-chloroisoxazolo[4,5-b]pyridin-3-yl)amino)-2-fluorophenyl)-3,6,6-trimethyl-3,6-dihydro-2H-1,4-thiazine 1,1-dioxide]: the IC50 at Cathepsin D (Cat D) stood at 45600 nM; in experiment [1] (Aβ40, 24 h incubation), 94.4 nM; in experiment [2] it was 13.8 nM.

With `Cc1cc(Cl)cnc1C(=O)Nc1ccc(F)c([C@]2(C)CS(=O)(=O)[C@@](C)(F)C(N)=N2)c1` [Example 388, N-(3-((3R,6R)-5-amino-6-fluoro-3,6-dimethyl-1,1-dioxido-3,6-dihydro-2H-1,4-thiazin-3-yl)-4-fluorophenyl)-5-chloro-3-methyl-2-pyridinecarboxamide], the results for the IC50 (on Cathepsin D (Cat D); in experiment [1]; in experiment [2]) were 230000 nM, 47.9 nM and 0.4 nM, respectively.

For the molecule `CC#CCOc1cnc(C(=O)Nc2ccc(F)c([C@@]3(C)N=C(N)C(C)(C)S(=O)(=O)C3F)c2)cn1` (stereo partly drawn) [Example 332, N-(3-((3R)-5-amino-2-fluoro-3,6,6-trimethyl-1,1-dioxido-3,6-dihydro-2H-1,4-thiazin-3-yl)-4-fluorophenyl)-5-(2-butyn-1-yloxy)-2-pyrazinecarboxamide], the IC50 came to 44900 nM on Cathepsin D (Cat D); 1 nM in experiment [1] (average IC50, HEK cell assay); 0.23 nM in experiment [2] (average IC50, enzyme assay).

As for `Cc1cc(OC(F)F)cnc1C(=O)Nc1ccc(F)c([C@]2(CF)CS(=O)(=O)C3(CCC3)C(N)=N2)c1` [Example 412, N-(3-((7S)-9-amino-7-(fluoromethyl)-5,5-dioxido-5-thia-8-azaspiro[3.5]non-8-en-7-yl)-4-fluorophenyl)-5-(difluoromethoxy)-3-methyl-2-pyridinecarboxamide], the values for the IC50 (on Cathepsin D (Cat D); in experiment [1]; in experiment [2]) were 78900 nM, 8.2 nM and 0.63 nM, respectively.
